Values quoted from earlier work as cited in patent US20140288899A1, “C[…] OF BINDING FREE ENERGY, C[…] OF BINDING FREE ENERGY, PROGRAM, SCREENING METHOD OF COMPOUND” (FUJITSU LIMITED, priority 2013, published 2014).

Key:
[1] = target: T1, FK506 BINDING PROTEIN (Homo sapiens, UniProt P62942); conditions: calculation value of Wang et al., Biophysical Journal Vol. 91, 2798-2814; restriction with a spring
[2] = target: T1, FK506 BINDING PROTEIN; conditions: experimental value disclosed in Holt et al., J. Am. Chem. Soc. 1993, 115, 9925-9938

T1 sequence (P62942 whole entry): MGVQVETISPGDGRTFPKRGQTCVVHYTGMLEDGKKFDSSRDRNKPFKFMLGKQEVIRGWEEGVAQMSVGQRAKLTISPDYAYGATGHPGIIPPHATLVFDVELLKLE

CCC(C)(C)C(=O)C(=O)N1CCCC[C@H]1C(=O)O[C@H](CCc1ccccc1)c1ccccc1 [1fkg, 1,3-DIPHENYL-1-PROPYL-1-(3,3-DIMETHYL-1,2-DIOXYPENTYL)-2-PIPERIDINE CARBOXYLATE]
binding free energy, calculation result of Comparative Example [1]: -10.3 kcal/mol | binding free energy, experimental value [2]: -10.9 kcal/mol
